Test system: NS-SV-AC cells
Assay: TNF-α-induced cytotoxicity, MTT assay
Type: cell-based, human
Details: cells exposed to TNF-α and EGCG in presence of inhibitor
Method: TNF-α cyotoxicity: NS-SV-AC cells (0.5×10<4> cells/well) were seeded in a 96-well microplate and either treated for 24 hr with EGCC as described above (or not treated in the control), in the presence of 100 ng/ml TNFα and 10 μg/ml cyclohexamide. After the treatments, viability was determined by the MTT assay. The cells in each well were washed with 200 μl of phosphate-buffered saline (PBS) and incubated with 100 μl of 2% (w/v) MTT in a solution of 0.05 M Tris-HCl (pH 7.6), 0.5 mM MgCl2, 2.5 mM CoCl2 and 0.25 M disodium succinate at 37° C. for 30 min. Cells were fixed by the addition of 100 μl of 4% (v/v) formalin in 0.2 M Tris-HCl (pH 7.6), and after a 5 min incubation at room temperature liquid was removed and the wells were allowed to dry. Each well was rinsed with 200 μl water and cells were solubilized by the addition of 100 μl of 6.35% (v/v) 0.1 N NaOH in DMSO. The colored formazan product was measured by a Thermo MAX micro plate reader (Molecular Devices Corp. Sunnyvale, Calif.) at a wavelength of 562 nm.
We examined the effects of EGCG on TNF-α-induced cytotoxicity of the human salivary gland acinar cell line NS-SV-AC using the MTT assay.
To examine the role of activation of the p38 signaling pathway in reducing TNF-α-induced cytotoxicity, cells were exposed to TNF-[alpha] and EGCG in the presence of either the p38 MAPK inhibitor SB203580 or the MEK inhibitor PD98059.

Row | SMILES | effect on protection by EGCG against TNF-α-induced loss of cell viability
1 | COc1cccc(-c2cc(=O)c3ccccc3o2)c1N [PD98059] | significantly reduced the protective effect of EGCG
2 | C[S+]([O-])c1ccc(-c2nc(-c3ccncc3)c(-c3ccc(F)cc3)[nH]2)cc1 (centres unmarked) [SB203580] | significantly reduced the protective effect of EGCG
